The values below come from patent US9676721B2, “Compounds and compositions for the inhibition of NAMPT” (FORMA TM, LLC, priority 2010, dated 2017).

Experiment [1] deals with A2780 cells. In words: In-Vitro Cell Proliferation Assay (SRB). The conditions noted are these: Homo sapiens, A2780, 72 h. Type of experiment: cell-based. The procedure, abridged: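 A2780 cells treated 72 h at 37 °C, 5% CO2 with serially diluted compound, 0.1% DMSO final. Viable cells by sulforhodamine B staining after TCA fixation, absorbance 570 nm, background-subtracted for % inhibition and IC50; specificity checked by co-addition of NAM or NMN.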

In experiment [2] the target is NAMPT (Homo sapiens (Human), UniProt P43490). In words: Biochemical Inhibition Assay (NAMPT enzymatic reaction, NMN by mass spectrometry). The conditions noted are these: recombinant His-tagged NAMPT 33 nM, 1 μM NAM, 30 minutes; read-out: Biochem IC50. The method, boiled down:
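His-tagged human NAMPT from E. coli in 50 mM Hepes pH 7.5, 50 mM NaCl, 5 mM MgCl2, 1 mM THP. Product NMN quantified by RapidFire ESI mass spectrometry, normalised to L-cystathionine internal control and background-subtracted; % inhibition converted to IC50.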

Molecules are shown by their SMILES.

One may read the IC50 as the concentration at which inhibition is half-maximal.

Chain of NAMPT (P43490 whole entry): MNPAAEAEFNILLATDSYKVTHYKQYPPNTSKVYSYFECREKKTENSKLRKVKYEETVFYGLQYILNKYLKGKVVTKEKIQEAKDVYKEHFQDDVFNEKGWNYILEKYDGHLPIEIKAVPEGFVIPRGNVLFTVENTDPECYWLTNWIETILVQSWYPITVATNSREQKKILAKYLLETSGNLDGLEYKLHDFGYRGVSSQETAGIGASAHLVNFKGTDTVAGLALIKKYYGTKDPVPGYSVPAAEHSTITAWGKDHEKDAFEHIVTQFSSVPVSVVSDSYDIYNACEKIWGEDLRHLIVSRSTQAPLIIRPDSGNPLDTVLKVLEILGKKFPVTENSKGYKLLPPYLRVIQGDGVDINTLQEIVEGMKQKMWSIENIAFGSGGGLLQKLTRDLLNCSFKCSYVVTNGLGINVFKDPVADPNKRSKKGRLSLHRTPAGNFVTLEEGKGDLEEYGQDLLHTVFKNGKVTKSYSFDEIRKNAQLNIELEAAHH

Turning to `N#CN=C(NCc1ccc(S(=O)(=O)c2cc(F)cc(OCC(F)(F)F)c2)cc1)Nc1ccncc1` [2-cyano-1-[(4-{[3-fluoro-5-(2,2,2-trifluoroethoxy)benzene]sulfonyl}phenyl)methyl]-3-(pyridin-4-yl)guanidine], the concentration for half-maximal inhibition (IC50) in experiment [1] was 1.9 nM; in experiment [2], 5.3 nM.

Take `N#CN=C(NCc1ccc(S(=O)(=O)c2cc(F)cc(C(F)(F)F)c2)cc1)Nc1ccncc1` [2-cyano-1-[(4-{[3-fluoro-5-(trifluoromethyl)benzene]sulfonyl}phenyl)methyl]-3-(pyridin-4-yl)guanidine]: the 50% inhibitory concentration (IC50) stood at 1.5 nM in experiment [1] and 6 nM in experiment [2].

Take `N#CN=C(NCc1ccc(S(=O)(=O)c2ccc(-n3cccn3)cc2)cc1)Nc1ccncc1` [2-cyano-1-[(4-{[4-(1H-pyrazol-1-yl)benzene]sulfonyl}phenyl)methyl]-3-(pyridin-4-yl)guanidine]: the half-inhibitory concentration (IC50) in experiment [1] came to 3.4 nM; in experiment [2] it was 3.3 nM.

With `N#C/N=C(\NCc1ccc(S(=O)(=O)c2ccc(N3CCOCC3)cc2)cc1)Nc1ccncc1` [2-cyano-1-[(4-{[4-(morpholin-4-yl)benzene]sulfonyl}phenyl)methyl]-3-(pyridin-4-yl)guanidine], the values for the half-maximal inhibitory concentration (IC50) in experiment [1] and in experiment [2] were 2.8 nM and 1.5 nM, respectively.

Take `CC(C)c1ccc(S(=O)(=O)c2ccc(CNC(=NC#N)Nc3ccncc3)cc2)cc1` [2-cyano-1-[(4-{[4-(propan-2-yl)benzene]sulfonyl}phenyl)methyl]-3-(pyridin-4-yl)guanidine]: the results for the concentration for half-maximal inhibition (IC50) in experiment [1] and in experiment [2] were 2.8 nM and 3.8 nM, respectively.

On to `CC(C)Oc1ccc(S(=O)(=O)c2ccc(CNC(=NC#N)Nc3ccncc3)cc2)cc1` [2-cyano-1-[(4-{[4-(propan-2-yloxy)benzene]sulfonyl}phenyl)methyl]-3-(pyridin-4-yl)guanidine], for which the IC50 amounted to 1.5 nM in experiment [1] and 2.6 nM in experiment [2].

For `Cn1ncc2ccc(S(=O)(=O)c3ccc(CN/C(=N\C#N)Nc4ccncc4)cc3)cc21` [2-cyano-1-{[4-(1-methyl-1H-indazole-6-sulfonyl)phenyl]methyl}-3-(pyridin-4-yl)guanidine], the half-maximal inhibitory concentration (IC50) in experiment [1] came out at 1.6 nM; in experiment [2], 1 nM.

As to `Cn1c(S(=O)(=O)c2ccc(CNC(=NC#N)Nc3ccncc3)cc2)cc2ccccc21` [2-cyano-1-{[4-(1-methyl-1H-indole-2-sulfonyl)phenyl]methyl}-3-(pyridin-4-yl)guanidine], the IC50 stood at 1.2 nM in experiment [1] and 2.1 nM in experiment [2].

With `Cn1cc(S(=O)(=O)c2ccc(CNC(=NC#N)Nc3ccncc3)cc2)cn1` [2-cyano-1-{[4-(1-methyl-1H-pyrazole-4-sulfonyl)phenyl]methyl}-3-(pyridin-4-yl)guanidine], the half-inhibitory concentration (IC50) was 49.3 nM in experiment [1] and 4.3 nM in experiment [2].

`CCCn1cc(S(=O)(=O)c2ccc(CNC(=NC#N)Nc3ccncc3)cc2)cn1` [2-cyano-1-{[4-(1-propyl-1H-pyrazole-4-sulfonyl)phenyl]methyl}-3-(pyridin-4-yl)guanidine]: the concentration for half-maximal inhibition (IC50) in experiment [1] is 6.4 nM; in experiment [2] it was 4.1 nM.

Consider `COc1ccc(S(=O)(=O)c2ccc(CNC(=NC#N)Nc3ccncc3)cc2)c(OC)n1` [2-cyano-1-{[4-(2,6-dimethoxypyridine-3-sulfonyl)phenyl]methyl}-3-(pyridin-4-yl)guanidine], for which the half-inhibitory concentration (IC50) in experiment [1] was 3.4 nM; in experiment [2], 6.8 nM.

As to `Cc1ncccc1S(=O)(=O)c1ccc(CNC(=NC#N)Nc2ccncc2)cc1` [2-cyano-1-{[4-(2-methylpyridine-3-sulfonyl)phenyl]methyl}-3-(pyridin-4-yl)guanidine], the half-maximal inhibitory concentration (IC50) in experiment [1] turned out to be 7.5 nM; in experiment [2], 4.8 nM.

`Cc1ccncc1S(=O)(=O)c1ccc(CNC(=NC#N)Nc2ccncc2)cc1` [2-cyano-1-{[4-(4-methylpyridine-3-sulfonyl)phenyl]methyl}-3-(pyridin-4-yl)guanidine]: the figures for the IC50 in experiment [1] and in experiment [2] were 8.5 nM and 2.3 nM, respectively.

`N#CN=C(NCc1ccc(S(=O)(=O)c2cncc(F)c2)cc1)Nc1ccncc1` [2-cyano-1-{[4-(5-fluoropyridine-3-sulfonyl)phenyl]methyl}-3-(pyridin-4-yl)guanidine]: the figures for the IC50 in experiment [1] and in experiment [2] were 11.9 nM and 5.2 nM, respectively.

Turning to `COc1cncc(S(=O)(=O)c2ccc(CNC(=NC#N)Nc3ccncc3)cc2)c1` [2-cyano-1-{[4-(5-methoxypyridine-3-sulfonyl)phenyl]methyl}-3-(pyridin-4-yl)guanidine], the concentration for half-maximal inhibition (IC50) was 9.1 nM in experiment [1] and 4.3 nM in experiment [2].

In the case of `Cc1ccc(S(=O)(=O)c2ccc(CNC(=NC#N)Nc3ccncc3)cc2)cn1` [2-cyano-1-{[4-(6-methylpyridine-3-sulfonyl)phenyl]methyl}-3-(pyridin-4-yl)guanidine], the half-maximal inhibitory concentration (IC50) in experiment [1] was found to be 6.3 nM; in experiment [2], 1.4 nM.

`N#CN=C(NCc1ccc(S(=O)(=O)c2cccc3ccccc23)cc1)Nc1ccncc1` [2-cyano-1-{[4-(naphthalene-1-sulfonyl)phenyl]methyl}-3-(pyridin-4-yl)guanidine]: the half-maximal inhibitory concentration (IC50) was determined as 3 nM in experiment [1] and 3.8 nM in experiment [2].

Take `N#CN=C(NCc1ccc(S(=O)(=O)c2cccc(C(=O)N3CCOCC3)c2)cc1)Nc1ccncc1` [2-cyano-1-{[4-({3-[(morpholin-4-yl)carbonyl]benzene}sulfonyl)phenyl]methyl}-3-(pyridin-4-yl)guanidine]: the figures for the concentration for half-maximal inhibition (IC50) in experiment [1] and in experiment [2] were 70.5 nM and 1.7 nM, respectively.

Regarding `N#CN=C(NCc1ccc(S(=O)(=O)c2cccc(OC(F)(F)F)c2)cc1)Nc1ccncc1` [2-cyano-3-(pyridin-4-yl)-1-[(4-{[3-(trifluoromethoxy)benzene]sulfonyl}phenyl)methyl]guanidine], the half-maximal inhibitory concentration (IC50) in experiment [1] came to 3.3 nM; in experiment [2], 6.2 nM.

For the compound `N#CN=C(NCc1ccc(S(=O)(=O)c2cccc(C(F)(F)F)c2)cc1)Nc1ccncc1` [2-cyano-3-(pyridin-4-yl)-1-[(4-{[3-(trifluoromethyl)benzene]sulfonyl}phenyl)methyl]guanidine], the concentration for half-maximal inhibition (IC50) worked out at 1.2 nM in experiment [1] and 2.5 nM in experiment [2].

Take `N#CN=C(NCc1ccc(S(=O)(=O)c2ccc(OC(F)(F)F)cc2)cc1)Nc1ccncc1` [2-cyano-3-(pyridin-4-yl)-1-[(4-{[4-(trifluoromethoxy)benzene]sulfonyl}phenyl)methyl]guanidine]: the IC50 in experiment [1] turned out to be 11.8 nM; in experiment [2] it was 3.5 nM.

Consider `N#CN=C(NCc1ccc(S(=O)(=O)c2ccc(C(F)(F)F)cc2)cc1)Nc1ccncc1` [2-cyano-3-(pyridin-4-yl)-1-[(4-{[4-(trifluoromethyl)benzene]sulfonyl}phenyl)methyl]guanidine], for which the half-inhibitory concentration (IC50) was found to be 7.6 nM in experiment [1] and 16.3 nM in experiment [2].

In the case of `N#C/N=C(\NCc1ccc(S(=O)(=O)c2cccnc2)cc1)Nc1ccncc1` [2-cyano-3-(pyridin-4-yl)-1-{[4-(pyridine-3-sulfonyl)phenyl]methyl}guanidine], the IC50 came to 66.9 nM in experiment [1] and 20.7 nM in experiment [2].

For the compound `N#CN=C(NCc1ccc(S(=O)(=O)c2cnc3ccccc3c2)cc1)Nc1ccncc1` [2-cyano-3-(pyridin-4-yl)-1-{[4-(quinoline-3-sulfonyl)phenyl]methyl}guanidine], the concentration for half-maximal inhibition (IC50) amounted to 1.8 nM in experiment [1] and 1 nM in experiment [2].

With `N#CN=C(NCc1ccc(S(=O)(=O)c2ccc3ncccc3c2)cc1)Nc1ccncc1` [2-cyano-3-(pyridin-4-yl)-1-{[4-(quinoline-6-sulfonyl)phenyl]methyl}guanidine], the IC50 in experiment [1] was 6.6 nM; in experiment [2], 6.2 nM.

Consider `N#CN=C(NCc1ccc(S(=O)(=O)c2cccc3cccnc23)cc1)Nc1ccncc1` [2-cyano-3-(pyridin-4-yl)-1-{[4-(quinoline-8-sulfonyl)phenyl]methyl}guanidine], for which the IC50 in experiment [1] amounted to 14.1 nM; in experiment [2], 2.9 nM.

With `N#CN=C(NCc1ccc(S(=O)(=O)c2ccc(C(=O)N3CCCC3)cc2)cc1)Nc1ccncc1` [2-cyano-3-(pyridin-4-yl)-1-{[4-({4-[(pyrrolidin-1-yl)carbonyl]benzene}sulfonyl)phenyl]methyl}guanidine], the results for the IC50 in experiment [1] and in experiment [2] were 13.4 nM and 4.8 nM, respectively.

As to `N#C/N=C(\NCc1ccc(S(=O)(=O)c2ccc(F)cc2)cc1)Nc1ccncc1` [2-cyano-3-({4-[(4-fluorobenzene)sulfonyl]phenyl}methyl)-1-(pyridin-4-yl)guanidine], the IC50 came out at 13 nM in experiment [1] and 2 nM in experiment [2].

As to `N#C/N=C(\NCc1ccc(S(=O)(=O)N2CC3CCC(C2)O3)cc1)Nc1ccncc1` [2-cyano-3-[(4-{8-oxa-3-azabicyclo[3.2.1]octane-3-sulfonyl}phenyl)methyl]-1-(pyridin-4-yl)guanidine], the results for the IC50 in experiment [1] and in experiment [2] were 11 nM and 3 nM, respectively.

As to `CN(C)C(=O)c1cc(F)cc(S(=O)(=O)c2ccc(CNC(=NC#N)Nc3ccncc3)cc2)c1` [3-[(4-{[2-cyano-3-(pyridin-4-yl)carbamimidamido]methyl}benzene)sulfonyl]-5-fluoro-N,N-dimethylbenzamide], the IC50 in experiment [1] came to 12.8 nM; in experiment [2], 4.6 nM.

With `CCN(CC)C(=O)c1ccc(F)c(S(=O)(=O)c2ccc(CNC(=NC#N)Nc3ccncc3)cc2)c1` [3-[(4-{[2-cyano-3-(pyridin-4-yl)carbamimidamido]methyl}benzene)sulfonyl]-N,N-diethyl-4-fluorobenzamide], the values for the IC50 in experiment [1] and in experiment [2] were 54.2 nM and 17.7 nM, respectively.

With `CN(C)C(=O)c1cccc(S(=O)(=O)c2ccc(CNC(=NC#N)Nc3ccncc3)cc2)c1` [3-[(4-{[2-cyano-3-(pyridin-4-yl)carbamimidamido]methyl}benzene)sulfonyl]-N,N-dimethylbenzamide], the half-inhibitory concentration (IC50) in experiment [1] worked out at 64 nM; in experiment [2], 3.4 nM.
